This note sets out measurements from patent publication US20120214822A1 (ASTRAZENECA AB, priority 2007, published 2012).

The target in the assay is human active recombinant p38α-6His tagged (Homo sapiens, UniProt Q16539). The assay is described as follows: P38 Alpha Enzyme Assay (AlphaScreen, biotinylated-ATF2 substrate).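 Note: 0.5 nM final p38α, reaction started with ATP and run 45 min at 37 °C, phospho-ATF2 read by antibody-based AlphaScreen, background wells quenched with EDTA before ATP.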 Type of assay: biochemical. The conditions noted are these: p38 alpha enzyme inhibition; means of replicate determinations; 4 h pre-incubation at 37° C.; SD of assay 0.2-0.3 log units. For orientation: Alpha assays give light when donor and acceptor beads are brought close together.
Chain of human active recombinant p38α-6His tagged (Q16539 whole entry): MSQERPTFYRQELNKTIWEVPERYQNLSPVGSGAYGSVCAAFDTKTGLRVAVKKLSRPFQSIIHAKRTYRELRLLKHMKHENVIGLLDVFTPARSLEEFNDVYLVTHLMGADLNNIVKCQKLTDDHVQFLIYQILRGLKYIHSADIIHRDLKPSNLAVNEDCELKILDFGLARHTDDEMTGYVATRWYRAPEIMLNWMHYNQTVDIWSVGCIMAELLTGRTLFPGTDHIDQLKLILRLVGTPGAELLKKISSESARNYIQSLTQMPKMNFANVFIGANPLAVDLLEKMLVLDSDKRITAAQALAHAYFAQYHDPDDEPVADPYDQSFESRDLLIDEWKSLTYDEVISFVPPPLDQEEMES
Broadly, the pIC50 is −log10 of the IC50, conventionally taken in molar units. Consider `Cc1ccc(C(=O)NC2CC2)cc1-n1ccnc(N[C@@H](c2ccccc2)[C@@H](C)CN2CCC(O)CC2)c1=O` [Example 152, N-Cyclopropyl-3-[3-[[(1R,2S)-3-(4-hydroxy-1-piperidinyl)-2-methyl-1-phenylpropyl]amino]-2-oxo-1(2H)-pyrazinyl]-4-methyl-benzamide], for which the pIC50 worked out at 8.9.
The same measure, in the same setting: to `Cc1ccc(C(=O)NC2CC2)cc1-n1ccnc(N[C@@H](c2ccccc2)[C@@H](C)CN2CCC[C@H](O)C2)c1=O` [Example 185, N-Cyclopropyl-3-[3-[[(1R,2S)-3-[(3S)-3-hydroxy-1-piperidinyl]-2-methyl-1-phenylpropyl]amino]-2-oxo-1(2H)-pyrazinyl]-4-methyl-benzamide] belongs 9.1; to `CC(=O)N1CCN(C[C@H](C)[C@@H](Nc2nccn(-c3cc(C(=O)NC4CC4)ccc3C)c2=O)c2ccccc2)CC1` [Example 140, 3-[3-[[(1R,2S)-3-(4-Acetyl-1-piperazinyl)-2-methyl-1-phenylpropyl]amino]-2-oxo-1(2H)-pyrazinyl]-N-cyclopropyl-4-methyl-benzamide], 8.6.
As to `Cc1ccc(C(=O)NC2CC2)cc1-n1ccnc(N[C@@H](c2ccccc2)[C@@H](C)CN2CCNC[C@H]2C)c1=O` [Example 187, N-Cyclopropyl-4-methyl-3-[3-[[(1R,2S)-2-methyl-3-[(2R)-2-methyl-1-piperazinyl]-1-phenylpropyl]amino]-2-oxo-1(2H)-pyrazinyl]-benzamide], the pIC50 was 9.8.
Same read-out and setting: to `Cc1ccc(C(=O)NC2CC2)cc1-n1ccnc(N[C@H](CC(=O)NC2CC2)c2ccccc2)c1=O` [Example 89] belongs 7.6; to `Cc1ccc(C(=O)NC2CC2)cc1-n1ccnc(N[C@@H](c2ccccc2)[C@@H](C)CNC(C)(C)C)c1=O` [Example 153, N-Cyclopropyl-3-[3-[[(1R,2S)-3-[(1,1-dimethylethyl)amino]-2-methyl-1-phenylpropyl]amino]-2-oxo-1(2H)-pyrazinyl]-4-methyl-benzamide], 9.2; to `Cc1c(F)cc(C(=O)NC2CC2)cc1-n1ccnc(NC(C)(C)c2ccccc2OCCNC[C@@H](C)O)c1=O` [Example 256, N-Cyclopropyl-3-fluoro-5-[3-[[1-[2-[2-[[(2R)-2-hydroxypropyl]amino]ethoxy]phenyl]-1-methylethyl]amino]-2-oxo-1(2H)-pyrazinyl]-4-methyl-benzamide], 10.5.
As to `Cc1ccc(C(=O)NC2CC2)cc1-n1ccnc(NC(C)(C)c2ccccc2OCCN2CCNCC2)c1=O` [Example 199, N-Cyclopropyl-4-methyl-3-[3-[[1-methyl-1-[2-[2-(1-piperazinyl)ethoxy]phenyl]ethyl]amino]-2-oxo-1(2H)-pyrazinyl]-benzamide], the pIC50 was 9.1.
Still for that read-out and setting: to `CCNCCOc1ccccc1C(C)(C)Nc1nccn(-c2cc(C(=O)NC3CC3)ccc2CC)c1=O` [Example 290, N-Cyclopropyl-4-ethyl-3-{3-[(1-{2-[2-(ethylamino)ethoxy]phenyl}-1-methylethyl)amino]-2-oxopyrazin-1(2H)-yl}benzamide] belongs 8.5; to `Cc1ccc(C(=O)NC2CC2)cc1-n1ccnc(NC2(c3ccccc3OC[C@H](O)CNCCO)CC2)c1=O` [Example 299, N-Cyclopropyl-3-[3-({1-[2-({(2R)-2-hydroxy-3-[(2-hydroxyethyl)amino]propyl}oxy)phenyl]cyclopropyl}amino)-2-oxopyrazin-1(2H)-yl]-4-methylbenzamide], 10; to `Cc1ccc(C(=O)N2CCCC2)cc1-n1cc(Br)nc(N2CCN(CCN3CCCC3)C(c3ccccc3)C2)c1=O` (stereo not shown) [Example 122, 1-[3-[5-Bromo-2-oxo-3-[3-phenyl-4-[2-(1-pyrrolidinyl)ethyl]-1-piperazinyl]-1(2H)-pyrazinyl]-4-methylbenzoyl]-pyrrolidine], 5.6.
Still for that read-out and setting: the figure for `Cc1ccc(C(=O)NC2CC2)cc1-n1ccnc(N[C@H]2C[C@@H]2c2ccccc2)c1=O` [Example 47, N-Cyclopropyl-4-methyl-3-[2-oxo-3-[[(1S,2R)-2-phenylcyclopropyl]amino]-1(2H)-pyrazinyl]-benzamide] is 7.2.
As a reminder, the IC50 is the concentration at which inhibition is half-maximal. With `CNCCCOc1ccccc1[C@H]1CCCN1c1nccn(-c2cc(C(=O)NC3CC3)ccc2C)c1=O` (single isomer, unassigned) [Example 325], the IC50 was 1.26 nM.
On to `Cc1ccc(C(=O)NC2CC2)cc1-n1ccnc(NC2(c3ccccc3OCCN3CCCC3)CC2)c1=O` [Example 238, N-Cyclopropyl-4-methyl-3-[2-oxo-3-[[1-[2-[2-(1-pyrrolidinyl)ethoxy]phenyl]cyclopropyl]amino]-1(2H)-pyrazinyl]-benzamide], for which the pIC50 is listed as 9.7.
Same read-out and setting: the figure for `Cc1ccc(C(=O)NC2CC2)cc1-n1ccnc(-c2ccccc2)c1=O` [Example 114, N-Cyclopropyl-4-methyl-3-(2-oxo-3-phenyl-1(2H)-pyrazinyl)-benzamide] is 6.6.
On the same count and under the same terms, the figure for `CONC(=O)c1ccc(C)c(-n2ccnc(N3CCCC3)c2=O)c1` [Example 132, N-Methoxy-4-methyl-3-[2-oxo-3-(1-pyrrolidinyl)-1(2H)-pyrazinyl]-benzamide] is 7.5; for `Cc1ccc(C(=O)NC2CC2)cc1-n1ccnc(NCc2ccc(CN)cc2)c1=O` [Example 125, 3-[3-[[[4-(Aminomethyl)phenyl]methyl]amino]-2-oxo-1(2H)-pyrazinyl]-N-cyclopropyl-4-methyl-benzamide] it is 6.2; for `Cc1ccc(C(=O)NC2CC2)cc1-n1ccnc(NC2(c3ccccc3OCCN3CCn4ccnc4C3)CC2)c1=O` [Example 296, N-Cyclopropyl-3-{3-[(1-{2-[2-(5,6-dihydroimidazo[1,2-a]pyrazin-7(8H)-yl)ethoxy]phenyl}cyclopropyl)amino]-2-oxopyrazin-1(2H)-yl}-4-methylbenzamide] it is 9.1.
Same read-out and setting: the figure for `CNCCOc1ccccc1C(C)(C)Nc1nccn(-c2cc(C(=O)NCCO)ccc2C)c1=O` [Example 228, N-(2-Hydroxyethyl)-4-methyl-3-[3-[[1-methyl-1-[2-[2-(methylamino)ethoxy]phenyl]ethyl]amino]-2-oxo-1(2H)-pyrazinyl]-benzamide] is 6.8; for `Cc1ccc(C(=O)NC2CC2)cc1-n1ccnc(NC2(c3ccccc3OCCN3CCNCC3)CC2)c1=O` [Example 243, N-Cyclopropyl-4-methyl-3-[2-oxo-3-[[1-[2-[2-(1-piperazinyl)ethoxy]phenyl]cyclopropyl]amino]-1(2H)-pyrazinyl]-benzamide] it is 9.4; for `CNCCOc1ccccc1C(C)(C)Nc1nccn(-c2cc(C(N)=O)ccc2C)c1=O` [Example 229, 4-Methyl-3-[3-[[1-methyl-1-[2-[2-(methylamino)ethoxy]phenyl]ethyl]amino]-2-oxo-1(2H)-pyrazinyl]benzamide] it is 8.6.
Turning to `Cc1ccc(C(=O)NC2CC2)cc1-n1ccnc(N[C@@H](c2ccccc2)[C@@H](C)CN(C)C(C)(C)C)c1=O` [Example 154, N-Cyclopropyl-3-[3-[[(1R,2S)-3-[(1,1-dimethylethyl)methylamino]-2-methyl-1-phenylpropyl]amino]-2-oxo-1(2H)-pyrazinyl]-4-methyl-benzamide], the negative logarithm of the IC50 (pIC50) is reported as 9.
On the same count and under the same terms, the figure for `CCNCCOc1ccc(F)cc1C1(Nc2nccn(-c3cc(C(=O)NC4CC4)ccc3C)c2=O)CC1` [Example 280, N-Cyclopropyl-3-[3-[[1-[2-[2-(ethylamino)ethoxy]-5-fluorophenyl]cyclopropyl]amino]-2-oxo-1(2H)-pyrazinyl]-4-methyl-benzamide] is 10.1.
On the same count and under the same terms, the figure for `CCNCCOc1ccccc1C1(Nc2nccn(-c3cc(C(=O)NC4CC4)cc(F)c3C)c2=O)CC1` [Example 262, N-Cyclopropyl-3-[3-[[1-[2-[2-(ethylamino)ethoxy]phenyl]cyclopropyl]amino]-2-oxo-1(2H)-pyrazinyl]-5-fluoro-4-methyl-benzamide] is 10.2; for `Cc1ccc(C(=O)NC2CC2)cc1-n1ccnc(N[C@@H](c2ccccc2)[C@@H](C)CNCC(C)C)c1=O` [Example 182, N-Cyclopropyl-4-methyl-3-[3-[[(1R,2S)-2-methyl-3-[(2-methylpropyl)amino]-1-phenylpropyl]amino]-2-oxo-1(2H)-pyrazinyl]-benzamide] it is 9; for `Cc1c(F)cc(C(=O)NC2CC2)cc1-n1ccnc(N[C@@H](c2ccccc2)[C@@H](C)CN2CCCCC2)c1=O` [Example 329, N-Cyclopropyl-3-fluoro-4-methyl-5-[3-{[(1R,2S)-2-methyl-1-phenyl-3-piperidin-1-ylpropyl]amino}-2-oxopyrazin-1(2H)-yl]benzamide] it is 9.6.
On to `CNCCSc1ccccc1C(C)(C)Nc1nccn(-c2cc(C(=O)NC3CC3)cc(F)c2C)c1=O` [Example 320, N-Cyclopropyl-3-fluoro-4-methyl-5-[3-{[1-methyl-1-(2-{[2-(methylamino)ethyl]sulfanyl}phenyl)ethyl]amino}-2-oxopyrazin-1(2H)-yl]benzamide], for which the pIC50 worked out at 9.5.
The same measure, in the same setting: the figure for `CNCCOc1ccccc1C1(Nc2nccn(-c3cc(C(=O)NC4CC4)cc(F)c3C)c2=O)CC1` [Example 259, N-Cyclopropyl-3-fluoro-4-methyl-5-[3-[[1-[2-[2-(methylamino)ethoxy]phenyl]cyclopropyl]amino]-2-oxo-1(2H)-pyrazinyl]-benzamide] is 10.
Same read-out and setting: the figure for `Cc1ccc(C(=O)NC2CC2)cc1-n1ccnc(SCc2ccccc2)c1=O` [Example 118] is 7.3.
On the same count and under the same terms, the figure for `Cc1ccc(C(=O)NC2CC2)cc1-n1ccnc(NC(C)(C)c2ccccc2OC2CCNC2)c1=O` (stereo not shown) [Example 216, N-Cyclopropyl-4-methyl-3-[3-[[1-methyl-1-[2-(3-pyrrolidinyloxy)phenyl]ethyl]amino]-2-oxo-1(2H)-pyrazinyl]-benzamide] is 9.4; for `Cc1ccc(C(=O)NC2CC2)cc1-n1ccnc(N(C)CCc2ccccc2)c1=O` [Example 66, N-Cyclopropyl-4-methyl-3-[3-[methyl(2-phenylethyl)amino]-2-oxo-1(2H)-pyrazinyl]benzamide] it is 6.5.
